Consider 95 molecules from ChEMBL document CHEMBL3507680, “University of Dundee, Gates Library screen for HepG2 cell viability”.

A short description of the data set: Human HepG2 cell viability assay in 384 well format. It is filed as toxicity, cell-based. Also on record: dose 125 nL, time 70.5 hour; concentration not given beside the values. The note with it: HepG2 cells, read-out: Inhibition.

As for `CS(=O)(=O)Cc1nc(CN2CCc3ccccc3CC2)cs1`, the cytotoxicity at 70.5 h turned out to be 5.16%.
For the molecule `O=C(O)c1ccc(S(=O)(=O)Nc2ccccc2CC(F)(F)F)c(F)c1`, the cytotoxicity at 70.5 h is -15.6%.
As to `Cc1cc(Cl)c2c(c1)C1(NC(=O)c3cccnc3N1)C(=O)N2` (stereo not given), the cytotoxicity at 70.5 h was -1.82%.
The same measure for `CC1(C)CN(Cc2csc(CS(C)(=O)=O)n2)Cc2ccccc21`: -0.447%.
For `NC(=O)C1(CNCc2csc(-c3cccs3)n2)CCOCC1`, the cytotoxicity at 70.5 h is -6.81%.
Take `O=C(NCc1nnc2n1CCCCC2)N1CCC2(CCCCC2)C1`: the cytotoxicity at 70.5 h is -6.29%.
For the molecule `CCN(C(=O)CCn1cccn1)C1CC1`, the cytotoxicity at 70.5 h is -5.79%.
In the case of `CC(Cn1cccn1)NCc1csc(-c2ccc(F)cc2)n1` (stereo not given), the cytotoxicity at 70.5 h worked out at 5.69%.
Take `OC1(CNC2CCN(c3ccccn3)CC2)CCc2ccccc21` (stereo not given): the cytotoxicity at 70.5 h is -6.83%.
In the case of `CSC1(CNC(=O)N(C)Cc2ccc(Cl)s2)CCOCC1`, the cytotoxicity at 70.5 h was found to be 30.6%.
Regarding `O=C(COCc1ccccc1Cl)N1CCN(c2ncccn2)CC1`, the cytotoxicity at 70.5 h worked out at 6.02%.
In the case of `CO[C@H]1CCN(S(=O)(=O)c2cccs2)[C@H]1Cc1ccncc1`, the cytotoxicity at 70.5 h is -6.14%.
For the molecule `Cn1ncc2c1C(COCC1CC1)CN(Cc1ccco1)C2` (stereo not given), the cytotoxicity at 70.5 h came out at 4.98%.
With `CN(C)C(=O)[C@H]1C[C@H]2OCC[C@H]2N(Cc2ccccn2)C1`, the cytotoxicity at 70.5 h was -2.93%.
As for `Cc1noc([C@H]2C[C@H]3OCC[C@H]3N(Cc3ccncc3)C2)n1`, the cytotoxicity at 70.5 h is -7.52%.
As to `c1ccc(CN2CCc3ncnc(-c4cncnc4)c3CC2)nc1`, the cytotoxicity at 70.5 h is 21.8%.
As to `O=C(N1CCCC1)N1CCn2c(Cn3cccn3)cnc2C1`, the cytotoxicity at 70.5 h was -0.231%.
On to `O=C1CC(c2cccnc2)C2(CCN(C(=O)N3CCOCC3)CC2)N1` (stereo not given), for which the cytotoxicity at 70.5 h was -12.4%.
On to `O=C1CC(c2ccncc2)C2(CCN(C(=O)c3ccnnc3)CC2)N1` (stereo not given), for which the cytotoxicity at 70.5 h was -8.48%.
For the molecule `Cc1nc(CN2C(=O)CC[C@@H]3[C@H]2CCN3C(=O)C2CCOCC2)cs1`, the cytotoxicity at 70.5 h was -7.34%.
For `Cc1nc(CN2C(=O)CC[C@@H]3[C@H]2CCN3C(=O)c2ccno2)cs1`, the cytotoxicity at 70.5 h is -1.87%.
With `CN(C)C(=O)N1CCn2cc(CNC(=O)CC3CC3)nc2C1`, the cytotoxicity at 70.5 h is -0.867%.
As to `O=C(c1ccncc1)N1CCc2c(COCC3CC3)cncc2C1`, the cytotoxicity at 70.5 h stood at 0.493%.
The same measure for `O=C(c1cnccn1)N1CCc2c(COCC3CC3)cncc2C1`: -7.37%.
Next, `COCC1CN(C(=O)Cc2ccc(F)cc2)Cc2ccnn2C1` (stereo not given): -5.52%.
Take `O=C1CC(c2ccccc2)C2(CCN(C(=O)c3cnccn3)CC2)N1` (stereo not given): the cytotoxicity at 70.5 h was -8.06%.
Turning to `Cc1cccc(CN2CCn3cc(CNC(=O)CC4CC4)nc3C2)n1`, the cytotoxicity at 70.5 h was -5.24%.
In the case of `Cc1noc(C)c1CN1CC[C@H](OCC2CC2)[C@@H](Cc2ccccc2)C1`, the cytotoxicity at 70.5 h was determined as 3.46%.
Regarding `c1ccc(CN2C[C@@H]3OCCN(c4cccnc4)[C@@H]3C2)nc1`, the cytotoxicity at 70.5 h is -12.2%.
Turning to `Fc1ccccc1CN1C[C@@H]2OCCN(c3ncccn3)[C@@H]2C1`, the cytotoxicity at 70.5 h is -13.2%.
As for `Cn1ccnc1CN1C[C@@H]2OCCN(c3ncccn3)[C@@H]2C1`, the cytotoxicity at 70.5 h is -16.1%.
For `O=C(c1ccco1)N1CCO[C@@H]2CNCC[C@@H]2C1`, the cytotoxicity at 70.5 h turned out to be 32.1%.
Regarding `CCC(NC(=O)c1cc(CC(C)C)nn1C)c1cccc(C)n1` (stereo not given), the cytotoxicity at 70.5 h stood at 8.39%.
Next, `Cc1nc(N(C)C)nc(N(C)CCc2ccncc2)c1C`: -15.2%; `Cn1ccc2c(-c3cc(N)nc(N4CCOCC4)n3)ccnc21`: 1.46%.
Regarding `CCCc1nnc(N2CCN(c3ccccc3F)CC2)o1`, the cytotoxicity at 70.5 h was determined as 13.5%.
Turning to `Nc1nc(CCCNC(=O)C2CCCN(Cc3ccco3)C2)cs1` (stereo not given), the cytotoxicity at 70.5 h came out at 8.32%.
Take `O=C(C1CCCN(C2CCOCC2)C1)N1CCc2ncccc2C1` (stereo not given): the cytotoxicity at 70.5 h is -4.26%.
As to `Cc1cccnc1CN1CCN(c2noc(-c3ccccc3)n2)CC1`, the cytotoxicity at 70.5 h came to 7.94%.
In the case of `CC(C)Nc1ccnc(N2Cc3cnc(C(C)(C)C)nc3C2)n1`, the cytotoxicity at 70.5 h was determined as 17.3%.
Consider `CCC(C(=O)NC1CCN(S(C)(=O)=O)CC1)n1cccn1` (stereo not given), for which the cytotoxicity at 70.5 h is -7.66%.
As for `CC(C)n1cnnc1CN1C(=O)CCc2ccccc21`, the cytotoxicity at 70.5 h was -1.8%.
For the molecule `CCc1nc2c(c(N3CCOCC3)n1)CCN(C(=O)c1ccon1)CC2`, the cytotoxicity at 70.5 h turned out to be 6.74%.
The same measure for `Cc1nn(C)c(C)c1C(C)NC(=O)c1cc(CN2CCC(O)CC2)on1` (stereo not given): -5.78%.
In the case of `CC(C)(C)c1ncc(C(=O)N2CCN(C(=O)c3ccc[nH]3)CC2)c(O)n1`, the cytotoxicity at 70.5 h was -2.76%.
Next, `O=C(c1cccc(C2CCNC2)c1)N1CCC(N2CCC(O)CC2)CC1` (stereo not given): 44.2%; `CC(C)[C@@H]1CN(C(=O)NCc2ccco2)C[C@H]1NS(=O)(=O)N(C)C`: 17.9%.
Take `COc1ccccc1OCCn1c(C)c(C)oc1=O`: the cytotoxicity at 70.5 h is 23.3%.
Next, `CNc1nc(C(=O)N2C[C@H]3CC[C@@H]2CN(S(C)(=O)=O)C3)cs1`: 12%.
For `Cc1cc(C)nc(NC2CC(=O)N(C)C2)n1` (stereo not given), the cytotoxicity at 70.5 h is -8.75%.
In the case of `Cc1ncsc1C(=O)N1CC[C@@]2(O)CCN(C(=O)N3CCCC3)C[C@H]2C1`, the cytotoxicity at 70.5 h is 12.8%.
Next, `COc1cc(F)ccc1C(C(=O)O)N(C)Cc1ccon1` (stereo not given): -7.03%; `CCCc1cnc(C)nc1NC(C)Cc1cnccn1` (stereo not given): -5.97%.
The same measure for `Cc1ccc(CN2CCCC(c3nnc(CN4CCCCC4)n3C)C2)s1` (stereo not given): 4.84%; for `Cc1cc2c(=O)n(CCSc3cnn[nH]3)cnc2s1`: -12.3%.
The same measure for `CCC(C(=O)N1CCS(=O)(=O)CC1)n1cccn1` (stereo not given): -4.81%.
As for `Cc1cccc2c1nc(CCO)n2-c1ccc(C(=O)N2CCCC2)o1`, the cytotoxicity at 70.5 h came to 12.9%.
Regarding `CCNC(=O)[C@@H]1C[C@H](N)CN1Cc1ccc(Sc2ccc(C)cc2)o1`, the cytotoxicity at 70.5 h is -13.8%.
Consider `c1csc(CN2CCc3c(CNc4nncs4)cncc3C2)c1`, for which the cytotoxicity at 70.5 h was -9.12%.
The same measure for `c1cnc(NCc2cncc3c2CCN(Cc2cccnc2)C3)nc1`: -5.03%; for `COC1COC2(CCN(c3ccc(C#N)cc3)CC2)C1` (stereo not given): -5.93%; for `CCOCC(=O)N1Cc2nccn2CC(CN2CCCC2)C1` (stereo not given): -11.5%.
Consider `O=C1CO[C@@H]2CN(C3CCOCC3)C[C@H]2N1Cc1cccc(F)c1`, for which the cytotoxicity at 70.5 h was -6.55%.
Regarding `Cc1nc(CN2CCc3ncnc(-c4ccsc4)c3CC2)cs1`, the cytotoxicity at 70.5 h was -9.47%.
Turning to `Cc1nc(CN2CCc3ncnc(C4CC4)c3CC2)cs1`, the cytotoxicity at 70.5 h is -2.07%.
Regarding `CN(C)C(=O)[C@H]1C[C@H]2OCC[C@H]2N(Cc2ccc3c(c2)OCO3)C1`, the cytotoxicity at 70.5 h stood at 0.648%.
With `O=C([C@H]1C[C@H]2OCC[C@H]2N(Cc2ccoc2)C1)N1CCCO1`, the cytotoxicity at 70.5 h was -5.69%.
As to `Cc1noc([C@@H]2C[C@H]3OCC[C@H]3N(CC3CCCC3)C2)n1`, the cytotoxicity at 70.5 h was -10.4%.
As to `CN(C)C(=O)COC1COC2(CCN(c3cccc(F)c3)CC2)C1` (stereo not given), the cytotoxicity at 70.5 h was 2.89%.
With `Cc1cc(CN2C[C@@H]3COC[C@]3(CNS(C)(=O)=O)C2)no1`, the cytotoxicity at 70.5 h came to 1.21%.
On to `COCCN1C(=O)CC[C@@H]2[C@H]1CCN2Cc1ccc(C)s1`, for which the cytotoxicity at 70.5 h is -11.5%.
The same measure for `Cc1cncc(C(=O)N2CCC3(CC2)NC(=O)CC3c2ccccc2)c1` (stereo not given): 17.7%; for `O=C(c1ccncc1F)N1CCc2ncnc(C3CC3)c2CC1`: -1.77%; for `Cc1cccc(CN2C(=O)CC[C@@H]3[C@H]2CCN3C(=O)c2ccsc2)n1`: -12.3%.
Regarding `CCS(=O)(=O)NC[C@]12COC[C@H]1CN(Cc1sccc1C)C2`, the cytotoxicity at 70.5 h was -0.717%.
With `COCC1CN(C(=O)Cc2cccc(F)c2)Cc2ccnn2C1` (stereo not given), the cytotoxicity at 70.5 h was -5.69%.
The same measure for `O=C(c1ccsc1)N1C[C@@H]2CCN(c3cccnc3)C[C@@H]2C1`: -6.89%; for `CCn1cc2c(n1)CN(Cc1ccc(C)o1)CC2COCC1CC1` (stereo not given): -5.09%.
Regarding `CCn1cc2c(n1)CN(Cc1sccc1C)CC2COCC1CC1` (stereo not given), the cytotoxicity at 70.5 h is -7.71%.
In the case of `CN(C)C(=O)N1Cc2ncn(C)c2C(COCC2CCOCC2)C1` (stereo not given), the cytotoxicity at 70.5 h is -11.9%.
For `Cn1cncc1CN1C[C@@H]2OCCN(c3ncccn3)[C@@H]2C1`, the cytotoxicity at 70.5 h was -9.56%.
For the molecule `O=C(c1ccc(O)cc1)N1C[C@@H]2CCN(c3cccnc3)C[C@@H]2C1`, the cytotoxicity at 70.5 h is 22.7%.
Turning to `CC(C)CN1C(=O)C[C@@H]2[C@@H]1CCN2Cc1cccc(C#N)c1`, the cytotoxicity at 70.5 h amounted to 2.48%.
Next, `Cc1noc([C@H]2C[C@H]3OCC[C@H]3N(Cc3scnc3C)C2)n1`: -7.11%.
Regarding `CN1CC(=O)N(c2cccc(F)c2)CC12CCN(CCO)C2` (stereo not given), the cytotoxicity at 70.5 h was -5.44%.
Take `c1csc(CN2CCCn3cnc(CN4CCCC4)c3C2)c1`: the cytotoxicity at 70.5 h was -2.7%.
Consider `CN(Cc1cccnc1)CC1CN(C(=O)C2CC2)Cc2nccn2C1` (stereo not given), for which the cytotoxicity at 70.5 h was -7.48%.
Next, `Cc1cccc(CN2C(=O)CC[C@H]3[C@@H]2CCN3CC(=O)N(C)C)n1`: -7.14%; `Cn1cc(CN2C[C@@H]3OCCN(c4ncccn4)[C@@H]3C2)cn1`: 1.07%; `O=C1[C@H]2CN(Cc3ccoc3)C[C@H]2CN1Cc1cccnc1`: -11.8%.
`c1cnc(N2CCO[C@H]3CN(Cc4ccsc4)C[C@H]32)nc1`: the cytotoxicity at 70.5 h was -14.2%.
`COCC1CN(Cc2c(C)noc2C)Cc2ccnn2C1` (stereo not given): the cytotoxicity at 70.5 h was -9.74%.
Regarding `c1ccc(COC[C@@H]2CCC[C@]23CN(Cc2nccs2)CCO3)nc1`, the cytotoxicity at 70.5 h was determined as 5.78%.
On to `c1ccc(CN2CCn3c(Cn4cncn4)cnc3C2)nc1`, for which the cytotoxicity at 70.5 h is -10.2%.
As to `COCCNC(=O)C1CN(Cc2cccnc2)Cc2ccnn2C1` (stereo not given), the cytotoxicity at 70.5 h is -13.8%.
